In patent US9656991B2, “Inhibitors of glutaminyl cyclase” (PROBIODRUG AG, priority 2007, dated 2017):

Molecular target: glutaminyl cyclase (QC) (Homo sapiens (Human), UniProt Q16769)
Conditions: QC inhibition, 30° C.
Procedure: All measurements were performed with a BioAssay Reader HTS-7000Plus for microplates (Perkin Elmer) at 30° C. QC activity was evaluated fluorometrically using H-Gln-βNA. The samples consisted of 0.2 mM fluorogenic substrate, 0.25 U pyroglutamyl aminopeptidase (Unizyme, Hørsholm, Denmark) in 0.2 M Tris/HCl, pH 8.0 containing 20 mM EDTA and an appropriately diluted aliquot of QC in a final volume of 250 μl. Excitation/emission wavelengths were 320/410 nm. The assay reactions were initiated by addition of glutaminyl cyclase. QC activity was determined from a standard curve of β-naphthylamine under assay conditions. One unit is defined as the amount of QC catalyzing the formation of 1 μmol pGlu-βNA from H-Gln-βNA per minute under the described conditions.
In a second fluorometric assay, QC was activity determined using H-Gln-AMC as substrate. Reactions were carried out at 30° C. utilizing the NOVOStar reader for microplates (BMG labtechnologies). The samples consisted of varying concentrations of the fluorogenic substrate, 0.1 U pyroglutamyl aminopeptidase (Qiagen) in 0.05 M Tris/HCl, pH 8.0 containing 5 mM EDTA and an appropriately diluted aliquot of QC in a final volume of 250 μl. Excitation/emission wavelengths were 380/460 nm. The assay reactions were initiated by addition of glutaminyl cyclase. […] The kinetic data were evaluated using GraFit software.
Samples consisted of the respective QC substrate, 0.3 mM NADH, 14 mM α-Ketoglutaric acid and 30 U/ml glutamate dehydrogenase in a final volume of 250 μl. […] All samples were measured at 30° C., using either the [sequence]luor Plus or the Sunrise (both from TECAN) reader for microplates. Kinetic data was evaluated using GraFit software.
For inhibitor testing, the sample composition was the same as described above, except of the putative inhibitory compound added. For a rapid test of QC-inhibition, samples contained 4 mM of the respective inhibitor and a substrate concentration at 1 KM. For detailed investigations of the inhibition and determination of Ki-values, influence of the inhibitor on the auxiliary enzymes was investigated first. […] The inhibitory constant was evaluated by fitting the set of progress curves to the general equation for competitive inhibition using GraFit software.

glutaminyl cyclase (QC), sequence (Q16769 29-361): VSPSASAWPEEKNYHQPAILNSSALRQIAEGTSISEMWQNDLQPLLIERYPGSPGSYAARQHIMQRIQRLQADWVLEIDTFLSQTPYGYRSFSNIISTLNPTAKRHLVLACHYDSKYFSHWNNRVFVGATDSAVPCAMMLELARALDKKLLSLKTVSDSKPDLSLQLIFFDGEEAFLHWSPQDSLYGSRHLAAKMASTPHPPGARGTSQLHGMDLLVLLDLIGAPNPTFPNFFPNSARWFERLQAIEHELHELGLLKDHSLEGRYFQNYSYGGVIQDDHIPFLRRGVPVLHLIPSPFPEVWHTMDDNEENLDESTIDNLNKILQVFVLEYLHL

Structure (SMILES) | IC50 [µM]
S=C(Nc1ccc2[nH]cnc2c1)N1CCCC1 [Example 67, N-(1H-benzo[d]imidazol-5-yl)pyrrolidine-1-carbothioamide] | 258
Fc1ccc(N2CCN(C(=S)Nc3ccc4[nH]cnc4c3)CC2)cc1 [Example 70, N-(1H-benzo[d]imidazol-5-yl)-4-(4-fluorophenyl)piperazine-1-carbo-thioamide] | 323
Fc1ccc(C2CCCN2C(=S)Nc2ccc3[nH]cnc3c2)cc1 (stereo not drawn) [Example 66, N-(1H-benzo[d]imidazol-5-yl)-2-(4-fluorophenyl)pyrrolidine-1-carbo-thioamide] | 128
CN(Cc1ccc(F)cc1)C(=S)Nc1ccc2[nH]cnc2c1 [Example 65, 1-(4-fluorobenzyl)-3-(1H-benzo[d]imidazol-5-yl)-1-methylthiourea] | 404
S=C(Nc1ccc2[nH]cnc2c1)N1CCCCC1 [Example 69, N-(1H-benzo[d]imidazol-5-yl)piperidine-1-carbothioamide] | 172
S=C(Nc1ccc2[nH]cnc2c1)N1CCOCC1 [Example 68, N-(1H-benzo[d]imidazol-5-yl)morpholine-4-carbothioamide] | 169
